Data published in ChEMBL document CHEMBL1201862, “PubChem BioAssay data set” (2004).
Activity calls are given as the source filed them.

Legend:
[1] = HEp-2 cell cytotoxicity, dose response, cytotoxicity control for RSV inhibitor project, HTS (AID 2410); format: functional; conditions: human respiratory syncytial virus
Fatty acid synthase [2] = target: T1, Fatty acid synthase (Homo sapiens, UniProt P49327); experiment: FAS thioesterase domain inhibitors, dose response, biochemical, endpoint fluorescence intensity, uHTS hits (AID 624327); format: functional;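 also: fluorescence from hydrolysis of an O-methyl fluorescein acyl ester substrate by the enzyme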
Fatty acid synthase [3] = target: T1, Fatty acid synthase; experiment: FAS thioesterase domain inhibitors, dose response, biochemical, kinetic fluorescence intensity (AID 624326); format: functional;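 also: rate of fluorescence rise from hydrolysis of a fluorogenic O-methyl fluorescein ester substrate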
Cytochrome P450 2C9 = Cytochrome P450 2C9 (Homo sapiens, UniProt P11712)
[4] = target: Heat shock cognate 71 kDa protein (Homo sapiens, UniProt P11142); experiment: In Vitro Hsc70 Dose Response Fluorescence Polarization Assay. [Related pubchem assays: 1072 ]
[5] = target: Heat shock 70 kDa protein 1A (Homo sapiens, UniProt P0DMV8); experiment: Hsp70 inhibitors, SAR follow-up, biochemical, fluorescence polarization (AID 1072)
Vero = experiment: cells; format: functional, cell-based; conditions: Chlorocebus sabaeus
[6] = Counterscreen for IDE inhibitors: Luminescence-based cell-based high throughput dose response assay to identify compounds that are cytotoxic to HEK cells. [Related pubchem assays: 434962 (Primary screen (IDE inhibitors in singlicate)), 449730 (Counterscreen (Cytotoxicity in triplicate)), 435028 (Confirmation (IDE inhibitors in triplicate)) …; format: functional; conditions: HEK293
Insulin-degrading enzyme = target: T2, Insulin-degrading enzyme (Homo sapiens, UniProt P14735); experiment: Dose Response: Fluorescence polarization-based cell-based high throughput dose response assay for inhibitors of insulin-degrading enzyme (IDE). [Related pubchem assays: 434962 (Primary screen (IDE inhibitors in singlicate)), 449730 (Counterscreen (Cytotoxicity in triplicate)), 435028 (Confirmation (IDE inhibitors in triplicate)), 434984 (Summary …; format: functional
T2 sequence (P14735 whole entry): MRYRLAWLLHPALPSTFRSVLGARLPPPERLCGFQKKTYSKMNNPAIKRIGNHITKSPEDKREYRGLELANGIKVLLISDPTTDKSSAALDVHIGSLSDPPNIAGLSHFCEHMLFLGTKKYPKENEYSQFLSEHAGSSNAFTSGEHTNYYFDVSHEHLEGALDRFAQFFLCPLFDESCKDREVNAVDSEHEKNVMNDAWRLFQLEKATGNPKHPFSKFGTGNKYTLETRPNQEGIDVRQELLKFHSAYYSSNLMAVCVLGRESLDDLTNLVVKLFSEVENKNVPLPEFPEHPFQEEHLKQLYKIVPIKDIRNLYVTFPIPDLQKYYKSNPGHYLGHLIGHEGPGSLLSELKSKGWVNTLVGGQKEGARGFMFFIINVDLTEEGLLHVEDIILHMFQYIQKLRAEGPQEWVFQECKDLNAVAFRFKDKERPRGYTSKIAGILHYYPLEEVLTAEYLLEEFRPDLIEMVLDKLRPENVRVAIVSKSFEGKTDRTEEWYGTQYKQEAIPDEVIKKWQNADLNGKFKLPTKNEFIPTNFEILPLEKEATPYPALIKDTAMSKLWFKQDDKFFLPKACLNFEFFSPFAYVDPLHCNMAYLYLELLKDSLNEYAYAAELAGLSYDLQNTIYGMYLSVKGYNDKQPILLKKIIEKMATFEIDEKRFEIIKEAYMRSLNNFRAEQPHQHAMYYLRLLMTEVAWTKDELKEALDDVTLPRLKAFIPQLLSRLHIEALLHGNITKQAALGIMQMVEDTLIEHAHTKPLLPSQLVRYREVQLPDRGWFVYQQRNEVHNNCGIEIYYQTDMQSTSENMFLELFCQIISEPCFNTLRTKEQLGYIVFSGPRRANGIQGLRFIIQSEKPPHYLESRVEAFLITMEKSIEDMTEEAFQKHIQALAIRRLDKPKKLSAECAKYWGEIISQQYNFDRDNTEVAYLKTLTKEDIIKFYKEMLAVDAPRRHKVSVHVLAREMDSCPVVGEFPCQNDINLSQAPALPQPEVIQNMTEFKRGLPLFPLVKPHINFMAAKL

[7] = target: 26S proteasome non-ATPase regulatory subunit 14 (Homo sapiens, UniProt O00487); experiment: inhibition of proteasome subunit RPN11 – biochemical, fluorescence polarization, uHTS hits, confirmation (AID 602368); format: functional
[8] = target: 72 kDa type IV collagenase (Homo sapiens, UniProt P08253); experiment: Dose Response validation of uHTS RPN11 inhibitor hits using a MMP-2 Fluorescence assay.; format: functional
Prothrombin = Prothrombin (Bos taurus, UniProt P00735); experiment: thrombin inhibition, dose response, biochemical, fluorescence polarization, uHTS hits (AID 602369); format: functional
[9] = target: Glyceraldehyde-3-phosphate dehydrogenase (Homo sapiens, UniProt P04406)
[10] = Luminescence Cell-Based Dose Confirmation HTS to Identify Activators of 5'UTR Stem-Loop Driven Alpha-Synuclein mRNA Translation in H4 Neuroglioblastoma Cells. [Related pubchem assays: 1829 (Project Summary), 1814 (Primary HTS)]; format: functional
[11] = Luminescence Cell-Based Dose Response HTS to Identify Activators of Luciferase Translation or Activity in H4 […] Cells. [Related pubchem assays: 1829 (Project Summary), 1814 (Primary HTS)]; format: functional
Bcl-2-like protein 10 = target: T3, Bcl-2-like protein 10 (Homo sapiens, UniProt Q9HD36); experiment: displacers of TR3 peptide from Bcl-B, primary screen, selectivity assay for Bfl-1 inhibitor project, biochemical, fluorescence polarization, FITC-TR3 peptide (AID 748);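 also: fluorescence polarization from a fluorescein-labelled TR3 peptide binding purified Bcl-B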
T3 sequence (Q9HD36 whole entry): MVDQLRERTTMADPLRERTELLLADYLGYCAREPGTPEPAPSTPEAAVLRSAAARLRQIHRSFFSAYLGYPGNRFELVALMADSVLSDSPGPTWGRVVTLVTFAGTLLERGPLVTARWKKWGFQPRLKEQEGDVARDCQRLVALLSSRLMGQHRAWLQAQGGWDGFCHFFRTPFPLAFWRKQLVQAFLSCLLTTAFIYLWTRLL

[12] = target: Luciferin 4-monooxygenase (Photinus pyralis, UniProt P08659); experiment: Counter Screen for Luciferase-based Assay Positives. [Related pubchem assays: 620, 618, 411 ]
H4 = experiment: Luminescence Cell-Based Dose Response HTS to Identify Activators of 5'UTR Stem-Loop Driven Prion Protein mRNA Translation in H4 Neuroglioblastoma Cells. [Related pubchem assays: 1829 (Project Summary), 1814 (Primary HTS)]; format: functional; conditions: Homo sapiens
Large T antigen = Large T antigen (Simian virus 40, UniProt P03070); format: functional, Betapolyomavirus macacae;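 also: Confirmatory-stage PubChem screen for compounds that inhibit SV40 T antigen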
[13] = inhibitors of intracellular T. cruzi replication, confirmation, NIH3T3 host cells, beta-gal luminescence (AID 2044); format: functional, cell-based;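 also: intracellular parasites grown in NIH/3T3 mouse fibroblasts as host cells; luminescent beta-galactosidase reporter signal from transgenic T. cruzi replicating inside host cells; inhibitors lower the luminescence signal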
HT-1080 = experiment: cytotoxicity in HT1080 fibrosarcoma cells, cell-based, fluorescence readout (AID 620); format: functional; conditions: Homo sapiens
[14] = cytotoxicity toward NIH3T3 fibroblasts, dose response, counter-screen, cell-based, ATP luminescence, mouse fibroblasts (AID 2010); format: functional;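 also: cells exposed to compound for about 90 hours before reading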
[15] = target: T4, Short transient receptor potential channel 4 (Mus musculus, UniProt Q9QUQ5); experiment: mouse TRPC4 channel inhibitors, dose response, cell-based, HEK293 TRPC4/mu-opioid, Fluo-4 calcium (AID 434942); format: functional;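 also: potency of inhibitors blocking the TRPC4 calcium response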
T4 sequence (Q9QUQ5 whole entry): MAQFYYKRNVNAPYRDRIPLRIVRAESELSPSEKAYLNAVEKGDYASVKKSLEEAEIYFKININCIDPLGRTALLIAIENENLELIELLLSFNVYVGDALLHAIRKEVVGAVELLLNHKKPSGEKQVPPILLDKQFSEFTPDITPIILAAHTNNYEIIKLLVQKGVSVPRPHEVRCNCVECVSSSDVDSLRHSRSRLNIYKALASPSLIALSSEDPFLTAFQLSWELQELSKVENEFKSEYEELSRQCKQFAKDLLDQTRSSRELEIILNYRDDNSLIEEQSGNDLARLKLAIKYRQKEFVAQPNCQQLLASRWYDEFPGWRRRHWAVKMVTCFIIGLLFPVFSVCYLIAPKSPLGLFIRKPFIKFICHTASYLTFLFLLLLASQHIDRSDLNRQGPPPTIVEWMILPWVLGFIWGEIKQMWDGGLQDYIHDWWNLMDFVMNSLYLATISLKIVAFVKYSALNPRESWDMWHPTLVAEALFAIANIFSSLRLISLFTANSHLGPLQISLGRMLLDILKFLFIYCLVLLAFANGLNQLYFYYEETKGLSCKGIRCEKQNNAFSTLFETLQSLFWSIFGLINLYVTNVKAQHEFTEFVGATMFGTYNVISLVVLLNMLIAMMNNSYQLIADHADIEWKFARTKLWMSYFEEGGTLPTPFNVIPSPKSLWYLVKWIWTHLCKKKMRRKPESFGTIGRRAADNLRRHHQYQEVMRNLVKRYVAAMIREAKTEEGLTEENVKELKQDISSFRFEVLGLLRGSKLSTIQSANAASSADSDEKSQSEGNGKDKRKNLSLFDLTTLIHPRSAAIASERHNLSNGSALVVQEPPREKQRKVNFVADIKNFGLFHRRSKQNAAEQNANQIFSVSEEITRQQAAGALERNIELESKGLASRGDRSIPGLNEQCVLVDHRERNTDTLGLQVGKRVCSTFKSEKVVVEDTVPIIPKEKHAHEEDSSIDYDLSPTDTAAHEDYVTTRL

INS1 = experiment: beta cell apoptosis inhibitors, cytokine rescue, dose response, luminescence, retest (AID 449756); format: functional, cell-based; conditions: Rattus norvegicus, INS1;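 also: cell death triggered by IL-1 beta plus TNF-alpha plus IFN-gamma mixture; protective hits raise ATP signal compared with cytokine alone wells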
[16] = target: T5, DNA repair and recombination protein RAD54-like (Homo sapiens, UniProt Q92698); experiment: inhibitors of human RAD54 branch migration, confirmation, biochemical, fluorescence, cherry-picked samples, dose series (AID 651657); format: functional
T5 sequence (Q92698 whole entry): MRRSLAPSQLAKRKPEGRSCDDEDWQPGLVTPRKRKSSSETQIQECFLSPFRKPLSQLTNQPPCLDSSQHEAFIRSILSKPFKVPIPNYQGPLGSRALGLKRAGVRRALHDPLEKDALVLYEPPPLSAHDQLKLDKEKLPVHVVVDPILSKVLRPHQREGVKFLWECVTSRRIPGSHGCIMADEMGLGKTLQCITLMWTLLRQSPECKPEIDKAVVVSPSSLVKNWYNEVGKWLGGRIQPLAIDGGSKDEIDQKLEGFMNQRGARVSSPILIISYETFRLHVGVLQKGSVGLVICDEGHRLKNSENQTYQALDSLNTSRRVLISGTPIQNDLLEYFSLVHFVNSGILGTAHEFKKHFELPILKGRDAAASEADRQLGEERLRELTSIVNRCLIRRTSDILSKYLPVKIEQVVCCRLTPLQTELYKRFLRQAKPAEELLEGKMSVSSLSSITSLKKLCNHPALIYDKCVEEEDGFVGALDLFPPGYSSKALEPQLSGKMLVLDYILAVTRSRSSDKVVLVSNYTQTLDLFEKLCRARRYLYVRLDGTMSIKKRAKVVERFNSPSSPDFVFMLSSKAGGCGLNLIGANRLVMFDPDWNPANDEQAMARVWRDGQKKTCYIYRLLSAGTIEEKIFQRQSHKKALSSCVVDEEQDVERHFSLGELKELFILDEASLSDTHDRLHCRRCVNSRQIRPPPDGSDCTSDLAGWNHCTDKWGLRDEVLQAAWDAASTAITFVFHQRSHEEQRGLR

[17] = target: T6, DNA repair protein RAD52 homolog (Homo sapiens, UniProt P43351); format: functional, biochemical
T6 sequence (P43351 whole entry): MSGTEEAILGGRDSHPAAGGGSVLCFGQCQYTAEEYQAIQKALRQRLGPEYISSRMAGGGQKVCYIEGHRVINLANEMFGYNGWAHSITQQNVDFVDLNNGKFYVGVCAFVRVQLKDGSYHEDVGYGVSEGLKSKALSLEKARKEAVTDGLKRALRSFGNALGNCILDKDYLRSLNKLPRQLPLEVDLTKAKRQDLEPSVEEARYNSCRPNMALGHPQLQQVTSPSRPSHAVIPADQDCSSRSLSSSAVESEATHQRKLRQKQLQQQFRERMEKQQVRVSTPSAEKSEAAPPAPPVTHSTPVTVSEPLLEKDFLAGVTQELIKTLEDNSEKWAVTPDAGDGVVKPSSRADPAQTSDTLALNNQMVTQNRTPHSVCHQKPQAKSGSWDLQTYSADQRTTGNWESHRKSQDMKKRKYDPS

T1 sequence (P49327 whole entry, the tested form may be a part): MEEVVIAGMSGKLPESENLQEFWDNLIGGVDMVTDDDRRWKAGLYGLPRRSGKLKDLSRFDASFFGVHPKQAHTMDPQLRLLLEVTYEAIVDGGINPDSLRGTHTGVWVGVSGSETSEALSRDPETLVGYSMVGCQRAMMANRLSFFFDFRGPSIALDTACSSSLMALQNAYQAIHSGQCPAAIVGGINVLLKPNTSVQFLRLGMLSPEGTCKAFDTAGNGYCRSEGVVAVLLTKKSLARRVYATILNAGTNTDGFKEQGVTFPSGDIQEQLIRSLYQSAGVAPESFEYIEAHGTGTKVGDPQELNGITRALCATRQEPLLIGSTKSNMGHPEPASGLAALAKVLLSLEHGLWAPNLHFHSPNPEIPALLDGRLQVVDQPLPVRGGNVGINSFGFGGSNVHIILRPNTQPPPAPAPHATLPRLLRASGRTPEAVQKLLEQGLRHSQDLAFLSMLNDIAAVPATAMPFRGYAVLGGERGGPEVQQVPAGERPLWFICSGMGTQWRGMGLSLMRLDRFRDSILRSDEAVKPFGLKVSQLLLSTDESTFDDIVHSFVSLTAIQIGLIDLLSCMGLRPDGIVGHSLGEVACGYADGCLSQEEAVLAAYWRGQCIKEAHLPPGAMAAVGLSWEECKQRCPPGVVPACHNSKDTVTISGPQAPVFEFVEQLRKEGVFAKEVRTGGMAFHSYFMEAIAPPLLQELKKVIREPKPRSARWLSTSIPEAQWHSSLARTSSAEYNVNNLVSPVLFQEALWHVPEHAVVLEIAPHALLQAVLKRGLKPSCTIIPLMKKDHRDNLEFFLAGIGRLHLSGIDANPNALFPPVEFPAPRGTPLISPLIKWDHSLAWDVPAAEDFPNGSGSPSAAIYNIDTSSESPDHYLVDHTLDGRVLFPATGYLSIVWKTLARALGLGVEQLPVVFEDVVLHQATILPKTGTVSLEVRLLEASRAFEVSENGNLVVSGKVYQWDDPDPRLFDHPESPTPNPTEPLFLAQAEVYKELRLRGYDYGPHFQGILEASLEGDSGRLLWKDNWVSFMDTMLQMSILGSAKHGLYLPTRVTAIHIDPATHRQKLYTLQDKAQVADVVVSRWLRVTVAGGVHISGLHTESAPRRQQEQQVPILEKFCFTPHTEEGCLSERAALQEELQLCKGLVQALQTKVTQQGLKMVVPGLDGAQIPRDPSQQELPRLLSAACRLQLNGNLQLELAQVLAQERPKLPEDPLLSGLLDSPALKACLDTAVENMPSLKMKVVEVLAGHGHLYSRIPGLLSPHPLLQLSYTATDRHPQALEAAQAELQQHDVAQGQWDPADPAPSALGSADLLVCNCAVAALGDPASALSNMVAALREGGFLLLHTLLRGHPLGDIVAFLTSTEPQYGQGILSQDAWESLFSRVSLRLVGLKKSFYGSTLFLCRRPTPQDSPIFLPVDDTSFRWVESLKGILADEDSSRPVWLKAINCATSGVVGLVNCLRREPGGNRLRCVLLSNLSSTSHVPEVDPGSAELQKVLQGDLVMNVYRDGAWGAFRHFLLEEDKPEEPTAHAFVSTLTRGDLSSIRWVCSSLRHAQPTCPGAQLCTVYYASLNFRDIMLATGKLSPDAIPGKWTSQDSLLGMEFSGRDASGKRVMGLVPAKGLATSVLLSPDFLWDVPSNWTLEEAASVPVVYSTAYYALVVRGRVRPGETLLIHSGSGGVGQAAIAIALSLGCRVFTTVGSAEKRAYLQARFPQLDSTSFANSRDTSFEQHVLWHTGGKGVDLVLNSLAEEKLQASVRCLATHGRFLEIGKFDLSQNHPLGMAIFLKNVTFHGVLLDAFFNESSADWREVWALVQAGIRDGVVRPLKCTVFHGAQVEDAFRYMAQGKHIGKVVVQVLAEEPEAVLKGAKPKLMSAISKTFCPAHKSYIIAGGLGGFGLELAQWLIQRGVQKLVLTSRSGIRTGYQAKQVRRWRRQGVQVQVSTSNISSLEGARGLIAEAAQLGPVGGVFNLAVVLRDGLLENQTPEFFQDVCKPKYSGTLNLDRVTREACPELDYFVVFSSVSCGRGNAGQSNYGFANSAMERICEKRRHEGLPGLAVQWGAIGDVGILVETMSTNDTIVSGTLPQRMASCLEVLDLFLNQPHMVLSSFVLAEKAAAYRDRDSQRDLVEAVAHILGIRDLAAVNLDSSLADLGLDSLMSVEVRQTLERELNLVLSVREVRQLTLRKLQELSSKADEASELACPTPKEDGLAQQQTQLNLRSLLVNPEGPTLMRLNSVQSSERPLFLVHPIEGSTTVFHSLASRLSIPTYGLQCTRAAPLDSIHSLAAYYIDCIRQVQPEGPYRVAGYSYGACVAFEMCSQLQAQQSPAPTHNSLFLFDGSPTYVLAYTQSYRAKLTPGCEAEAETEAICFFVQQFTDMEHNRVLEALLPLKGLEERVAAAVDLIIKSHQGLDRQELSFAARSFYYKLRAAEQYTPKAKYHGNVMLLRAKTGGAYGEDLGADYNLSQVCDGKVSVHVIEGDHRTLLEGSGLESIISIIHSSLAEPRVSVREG
Chain of Heat shock cognate 71 kDa protein (P11142 whole entry): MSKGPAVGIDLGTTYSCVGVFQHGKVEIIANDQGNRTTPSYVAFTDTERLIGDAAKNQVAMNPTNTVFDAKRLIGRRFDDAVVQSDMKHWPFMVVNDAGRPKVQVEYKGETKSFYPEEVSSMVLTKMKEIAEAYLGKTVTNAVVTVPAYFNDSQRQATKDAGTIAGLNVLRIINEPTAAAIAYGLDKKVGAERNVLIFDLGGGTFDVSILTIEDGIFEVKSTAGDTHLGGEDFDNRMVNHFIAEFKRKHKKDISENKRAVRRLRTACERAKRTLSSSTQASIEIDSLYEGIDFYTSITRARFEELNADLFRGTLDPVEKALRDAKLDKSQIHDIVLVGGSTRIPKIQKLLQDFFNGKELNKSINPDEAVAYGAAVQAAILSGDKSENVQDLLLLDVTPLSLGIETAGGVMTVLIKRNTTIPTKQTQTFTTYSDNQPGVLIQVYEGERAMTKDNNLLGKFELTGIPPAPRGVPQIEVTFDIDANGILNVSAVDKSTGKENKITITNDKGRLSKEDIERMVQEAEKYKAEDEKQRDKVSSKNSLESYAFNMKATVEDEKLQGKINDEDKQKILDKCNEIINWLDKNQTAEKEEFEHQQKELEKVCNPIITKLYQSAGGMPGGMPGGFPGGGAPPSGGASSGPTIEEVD
Chain of Heat shock 70 kDa protein 1A (P0DMV8 whole entry): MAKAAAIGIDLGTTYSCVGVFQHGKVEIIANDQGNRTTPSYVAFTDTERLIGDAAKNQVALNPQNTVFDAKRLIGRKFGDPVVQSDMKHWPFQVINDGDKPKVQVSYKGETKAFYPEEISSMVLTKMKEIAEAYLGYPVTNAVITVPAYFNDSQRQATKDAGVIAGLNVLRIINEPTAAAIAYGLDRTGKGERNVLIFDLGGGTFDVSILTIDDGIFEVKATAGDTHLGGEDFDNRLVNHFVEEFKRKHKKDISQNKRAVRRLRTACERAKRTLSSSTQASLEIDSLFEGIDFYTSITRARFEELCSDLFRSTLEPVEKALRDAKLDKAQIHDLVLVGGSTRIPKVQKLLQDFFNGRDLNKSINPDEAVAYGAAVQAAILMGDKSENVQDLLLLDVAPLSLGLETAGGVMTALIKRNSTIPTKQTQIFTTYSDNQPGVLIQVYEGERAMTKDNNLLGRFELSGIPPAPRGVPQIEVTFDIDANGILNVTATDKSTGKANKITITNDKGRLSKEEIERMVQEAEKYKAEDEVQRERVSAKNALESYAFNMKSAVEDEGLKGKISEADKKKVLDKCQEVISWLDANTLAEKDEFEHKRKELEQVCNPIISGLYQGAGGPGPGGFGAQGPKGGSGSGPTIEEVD
Chain of Glyceraldehyde-3-phosphate dehydrogenase (P04406 whole entry): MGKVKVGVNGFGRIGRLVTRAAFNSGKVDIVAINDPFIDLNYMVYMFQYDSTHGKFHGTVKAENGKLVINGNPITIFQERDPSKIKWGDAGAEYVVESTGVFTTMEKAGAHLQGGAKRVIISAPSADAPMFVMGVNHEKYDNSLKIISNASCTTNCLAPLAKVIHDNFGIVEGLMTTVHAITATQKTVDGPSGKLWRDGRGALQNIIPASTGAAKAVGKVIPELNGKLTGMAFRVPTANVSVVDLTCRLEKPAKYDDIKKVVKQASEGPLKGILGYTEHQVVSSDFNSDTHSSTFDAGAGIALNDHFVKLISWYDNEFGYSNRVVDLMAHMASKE
Chain of Cytochrome P450 2C9 (P11712 whole entry): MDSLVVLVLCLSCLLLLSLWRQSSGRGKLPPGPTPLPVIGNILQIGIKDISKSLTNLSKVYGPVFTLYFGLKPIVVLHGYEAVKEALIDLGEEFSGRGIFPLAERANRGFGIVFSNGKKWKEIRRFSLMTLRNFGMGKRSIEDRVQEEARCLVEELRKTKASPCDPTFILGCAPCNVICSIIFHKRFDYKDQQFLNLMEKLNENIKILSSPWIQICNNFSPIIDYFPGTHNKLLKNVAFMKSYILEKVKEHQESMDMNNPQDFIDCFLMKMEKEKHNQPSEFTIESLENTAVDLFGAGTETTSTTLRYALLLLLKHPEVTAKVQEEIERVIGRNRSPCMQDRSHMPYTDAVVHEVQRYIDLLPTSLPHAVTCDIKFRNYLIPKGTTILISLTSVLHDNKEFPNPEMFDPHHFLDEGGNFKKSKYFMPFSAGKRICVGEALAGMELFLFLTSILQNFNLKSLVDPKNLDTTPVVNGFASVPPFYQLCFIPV
Chain of 26S proteasome non-ATPase regulatory subunit 14 (O00487 whole entry): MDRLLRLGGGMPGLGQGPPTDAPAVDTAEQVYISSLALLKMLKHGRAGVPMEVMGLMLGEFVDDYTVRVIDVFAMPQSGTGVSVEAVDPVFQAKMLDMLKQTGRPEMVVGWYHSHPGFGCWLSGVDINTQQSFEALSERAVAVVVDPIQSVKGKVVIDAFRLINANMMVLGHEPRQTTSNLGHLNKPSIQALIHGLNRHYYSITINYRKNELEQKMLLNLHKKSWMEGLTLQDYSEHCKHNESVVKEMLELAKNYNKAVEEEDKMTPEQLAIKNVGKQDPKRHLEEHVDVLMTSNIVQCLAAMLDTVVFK

## Cc1ccc2cc3cc(C(=O)N4CCCCC4C)oc3nc2c1 (stereo unspecified)
[1]
  CC50: > 50 µM (active)
Fatty acid synthase [2]
  IC50: 2.28 µM (active)
Fatty acid synthase [3]
  IC50: 4.44 µM (active)
Cytochrome P450 2C9
  AC50: inconclusive
cells
  IC50: 21.4 µM (active)

## O=C(O)CCc1c2ccc(=O)c(O)c-2oc2c(O)c(O)ccc12
[4]
  IC50: 3.98 µM (active)
[5]
  IC50: 0.578 µM (active)

## Cc1ccc(C(=O)Nc2ccccc2SCC2CSc3nc4ccccc4c(=O)n32)cc1 (stereo unspecified)
[1]
  CC50: 27.7 µM (active)
Vero
  IC50: 10.4 µM (active)
cells
  IC50: 11.4 µM (active)

## COc1ccc(/N=C\c2oc3ccc4ccccc4c3c2O)cc1
[6]
  IC50: > 55.7 µM (not active)
Insulin-degrading enzyme
  IC50: > 55.9 µM (not active)
[7]
  IC50: 10 µM (active)
[8]
  IC50: > 100 µM (inactive)
Prothrombin
  IC50: 3.81 µM (active)

## O=C(O)/C=C/c1c2ccc(=O)c(O)c-2oc2c(O)c(O)ccc12
[9]
  IC50: 15.8 µM (active)
[4]
  IC50: 2.73 µM (active)
[5]
  IC50: 0.332 µM (active)

## Oc1ccc(Nc2nc(N3CCCC3)c3ccccc3n2)cc1
[10]
  EC50: > 120 µM (not active)
[11]
  EC50: 12.9 µM (active)
Bcl-2-like protein 10
  IC50: 43.9 µM (active)
[12]
  EC50: < 0.2 µM (active)
H4
  EC50: > 120 µM (not active)
Large T antigen
  IC50: 4.72 µM (active)
[13]
  EC50: 2.11 µM (active)
HT-1080
  EC50: 25.7 µM (active)
[14]
  EC50: 9.1 µM (active)
[15]
  EC50: 5.96 µM (active)
INS1
  AC50: 7.85 µM (active)
[16]
  AC50: 6.91 µM (active)
[17]
  AC50: 13.3 µM (active)
